Data as given in patent US20070134233A1, “Compositions and methods relating to organ-, tissue-, and cell-specific antibodies” (Phylonix Pharmaceuticals, Inc., priority 2004, published 2007).
Entries after “also recorded” stand apart in the source; their conditions may differ.

What was measured:
[1] = system: angiogenic vessel growth in zebrafish embryos; experiment: Quantitative in vivo microplate assay using Phy-V001 mAb; conditions: for effect on angiogenic vessel development (discussion summary): 2 dpf and 3 dpf stages; for Vessel Reduction (%) Zebrafish: single dosing, Concentration SU5416 2 μM, Flavopiridol 3 μM
[2] = system: angiogenic vessel development in zebrafish embryos; experiment: Whole mount immunostaining with Phy-V001 of drug-treated embryos; format: in vivo; conditions: for vasculature compared to controls: various concentrations; for vasculature compared to controls / ISV staining by Phy-V001: at 3 dpf; for ISV staining by Phy-V001: 48 hours
[3] = system: activated endothelial cells in the zebrafish embryo; experiment: Quantitative in vivo EC proliferation assay (whole animal Phy-V002 ELISA); conditions: ~20 hpf embryos treated for 28 hours
Experimental: Quantitative in vivo EC proliferation assay: Embryos were fixed by Dent's fixative (DMSO/methanol=1/3) at room temperature (23+2° C.) for 3 hours, dehydrated to 100% EtOH following standard dehydration procedures. Embryos were then permeabilized, rehydrated, treated with horseradish peroxidase (HRP) suppressor to inhibit endogenous HRP. After treatment with 1 M NH4Cl at room temperature for 3 hours to quench autofluorescence, embryos were then blocked and incubated with Phy-V002 mAb following a standard procedure (see Westerfield, supra). After washing with PBST, embryos were incubated with HRP-conjugated secondary antibody. QuantaBlu (Pierce) was used as the fluorescence enzyme substrate; the stained EC was quantified by measuring the fluorescence units of the enzymatic end product at 315-340 nm (excitation)/370-470 nm (emission) using SPECTRAmax Gemini microplate reader (Molecular Devices).
Drug effect on EC proliferation was calculated by the following formula: [formula]

EC = conditions: serum of patients treated with flavopiridol; cited from earlier work
zebrafish embryos [4] = experiment: Embryo growth inhibition by body length; format: in vivo; conditions: 5 μM for 4 days
Experimental: Drugs cause growth retardation: Many drugs cause growth inhibition. […] 1 dpf embryos are treated with identified “hit” drugs at various concentrations for 4 days. Body length is measured at 5 dpf and plotted against drug concentration. Normal untreated and 0.1% DMSO treated embryos are used as controls. At least 10 embryos are used for each condition.

zebrafish embryos [5] = experiment: Embryo death and body malformation after drug treatment; format: in vivo
Experimental: Assay validation with small molecule drugs: Using the whole mount immunostaining technique described supra, several small molecule drugs were tested. […] Flavopiridol is a cyclin-dependent kinase inhibitor known to inhibit cell proliferation (Senderowicz, Invest. New Drugs 17:313-20, 1999). COL-1 and COL-3 are inhibitors of matrix metalloproteases (MMPs), which are known to play a crucial role in vascular endothelial cell migration (Seftor et al. 2001). During early embryo development (˜12 hpf), many structures including the notochord, the somites, and the heart are beginning to form and these structures directly affect both vasculargenesis and angiogenesis. After 20 hpf, since the DA and the PCV are fully formed, drug effects on vessel formation are less likely to be secondary effects (indirect effects due to damage to the notochord, somites, or heart). Therefore, ˜1 dpf was chosed as the time point to initiate drug treatment. Embryos were incubated with varying concentrations of each drug continuously for 48 hours. Drug effects were examined at 2 dpf and 3 dpf.

[6] = system: vessel formation in zebrafish embryos; experiment: In vivo vessel formation assay (Phy-V002 staining); conditions: 2 dpf embryos
Text: In vivo vesselformation assay: Embryos were processed as described in “In vivo EC migration Assay,” supra, and examined by fluorescence microscopy. Images of stained embryos were captured by CCD camera and analyzed by Adobe Photoshop software. Higher magnification (10×) images of control and drug treated embryos at the region where vessel defects were observed were quantitated by morphometric analysis (Signal (S)=[area (pixel) X signal intensity]) using Scion Image program. Percent (%) inhibition in vessel formation can be calculated by the following formula: [formula] Results 1. Quantitative in Vivo EC Proliferation Assay

Mouse Tumor = conditions: 12 mg/ml/day, dosing frequency 18; cited from earlier work

Cc1[nH]c(/C=C2\C(=O)Nc3ccc(Br)cc32)c(C)c1CCC(=O)O [SU9518]
angiogenic vessel inhibition ([1]; 0.1 μM to 100 μM, at 2 dpf): did not result in any angiogenic vessel inhibition | effect on angiogenic vessel development (discussion summary) [1]: did not have any effect | Change in vessel development compared to control ([2]; 0.1 μM to 100 μM, at 2 dpf): did not cause a change in vessel development | vasculature compared to controls [2]: appeared unchanged

CN1CC[C@H](c2c(O)cc(O)c3c(=O)cc(-c4ccccc4Cl)oc23)[C@H](O)C1 [flavopiridol]
% inhibition in EC proliferation, dose response [3]: % inhibition in EC proliferation increasing proportionally with drug concentration | inhibition at 1 µM ([1]; Danio rerio, 1 μM, at 2 dpf): 13% | inhibition at 3 µM ([1]; Danio rerio, 3 μM, at 2 dpf, read-out: maximum inhibition of angiogenic vessel growth): ~27% | inhibition at 5 µM ([1]; Danio rerio, 5 μM, at 3 dpf): ~17% | Vessel Reduction (%) Zebrafish [1]: ˜27% | Inhibition of angiogenic vessel development (Phy-V001 staining) ([2]; 1 μM, at 2 dpf): inhibitory effect was not obvious | Inhibition of angiogenic vessel development (Phy-V001 staining) ([2]; 3 μM, at 2 dpf): ISV staining in the trunk region decreased | Inhibition of angiogenic vessel development (Phy-V001 staining) ([2]; 5 μM, at 2 dpf, surviving embryos): dramatic decrease in ISV staining | Inhibition of angiogenic vessel development (Phy-V001 staining) ([2]; 7 μM, at 2 dpf, surviving embryos): decreased staining in ISVs | ISV staining by Phy-V001 ([2]; 1, 3, and 5 μM): staining intensity appeared weaker | Vessel Reduction (%) EC Proliferation (EC): ˜32% | Vessel Reduction (%) EC Proliferation, range (EC): (8-70% range) | overall embryo growth, body length (zebrafish embryos [4]): caused inhibition of overall embryo growth | body formation of surviving embryos (zebrafish embryos [5]; 5 μM, at 2 dpf): truncated body formation | embryos died (zebrafish embryos [5]; 5 μM, at 2 dpf): ~16% | embryos died (zebrafish embryos [5]; 7 μM, at 2 dpf): ~20% | embryos died (zebrafish embryos [5]; 7 μM, at 3 dpf): All the 7 μM flavopiridol treated embryos died

Cc1cc(C)c(/C=C2\C(=O)Nc3ccccc32)[nH]1 [SU5416]
inhibition in angiogenic vessel growth ([1]; 48 hours treatment, at 3 dpf, surviving embryos): No significant inhibition | inhibition at 15 µM ([1]; Danio rerio, 15 μM, at 2 dpf, read-out: maximum inhibition in vessel growth): ~40.5% | Vessel Reduction (%) Zebrafish [1]: ˜40.5% | vessel formation (cranial vessels and ISVs) ([6]; 1 μM): partially missing; also recorded: abnormal when compared to control embryos | vessel formation (cranial vessels and ISVs) ([6]; 2.5 μM and higher): nearly completely absent | Inhibition of angiogenic vessel development (Phy-V001 staining) ([2]; 10 μM, 24 hours, at 2 dpf): inhibitory effect was not obvious | Inhibition of angiogenic vessel development (Phy-V001 staining) ([2]; 15 μM, 24 hours, at 2 dpf): dramatic decrease in Phy-V001 staining | Inhibition of angiogenic vessel development (Phy-V001 staining) ([2]; 20 μM, at 2 dpf, surviving embryos): ISVs were barely detectable | ISV staining by Phy-V001 ([2]; 10 and 15 μM): staining was weaker | Vessel Reduction (%) Mouse Tumor (Mouse Tumor): ˜42% | body formation of surviving embryos (zebrafish embryos [5]; 20 μM, at 2 dpf): truncated body formation

NC(=O)C1=C(O)C[C@@H]2C[C@@H]3Cc4cccc(O)c4C(=O)C3=C(O)[C@]2(O)C1=O [COL-3]
maximum inhibition of angiogenic vessel growth ([1]; 5 μM, at 2 dpf): ~39% | inhibition on angiogenic vessel development ([1]; 1 to 10 μM, at 3 dpf): ~25% | effect on angiogenic vessel development (discussion summary) [1]: significant inhibitory effect | Change in vessel pattern ([2]; at 2 dpf, concentration not given): caused a loss of a few ISVs | vasculature compared to controls [2]: appeared unchanged

COc1cc2c(cc1O)CC[C@@H]1[C@@H]2CC[C@]2(C)[C@@H](O)CC[C@@H]12 [2-methoxyestradiol]
% inhibition in EC proliferation, dose response [3]: % inhibition in EC proliferation increasing proportionally with drug concentration
